In patent US12053460B2, “Inhibitors of intracellular invasion” (Meharry Medical College, priority 2016, dated 2024):
Entries after “also recorded” stand apart in the source; their conditions may differ.

Legend:
P. gingivalis vesicles = assay: Invasion of P. gingivalis outer membrane vesicles into HOKs (confocal microscopy); conditions: for inhibitory efficiency on internalization of P. gingivalis vesicles (comparison of compounds): vs DMSO control; for reduction of the total number of HOKs with intracellular vesicles: vs HOKs unexposed to compound, P<0.001
Protocol: Human oral keratinocytes (HOKs) were purchased from ScienCell Research Laboratories (Carlsbad, CA) and cultured in specific media, according to the manufacturer's instructions. Prior to treatment, HOKs (2×10^4) were seeded and grown overnight in poly-L-lysine-coated 35 mm glass bottom dishes (MatTek Corporation) at 37° C., 5% CO2, then exposed to P. gingivalis 33277 (2×10^6) or its vesicles (100 ng) for 0 or proper experimental times. To examine the role of Alop1 and dynasore in the bacterial invasion, the compounds were added to the medium 10 min prior to infection.
HOKs were fixed with 3.8% formaldehyde in a sodium phosphate buffer at room temperature for 10 min after treatment, permeabilized with 0.1% Triton X-100 for 10 min, and blocked with 5% bovine serum albumin in PBS for 1 h. HOKs were then immunostained with pan-specific antibodies of P. gingivalis 33277, and α Tubulin or Actin mono-antibodies (Santa Cruz Biotechnology, Dallas, Texas), followed by goat anti-rabbit IgG conjugated to Alex Fluor 546 (Invitrogen). Nuclei were stained with DAPI (Invitrogen). Confocal images were acquired using a Nikon A1R confocal microscope.
For infection rate determination, the number of HOKs with intercellular P. gingivalis cells or its vesicles were determined and divided by the total number of HOKs by counting the cells in 30 random areas (5.6 μm×5.6 μm) under the confocal microscope. Moreover, fluorescence intensity was determined in 100 individual cells using imaging software NIS-Elements AR 4.20, which reflects the level of intercellular P. gingivalis and its vesicles in the infected HOKs.

P. gingivalis = conditions: literature [21]; cited from earlier work
microtubules in HOKs = assay: Microtubule arrangement in HOKs (anti-α-tubulin staining, confocal microscopy); type: cell-based, human; conditions: 30 μM
P. gingivalis 33277 [1] = assay: Exit of intracellular P. gingivalis cells from HOKs; conditions: 30 μM, 20 h, with gentamicin and metronidazole
P. gingivalis 33277 [2] = assay: Invasion of P. gingivalis cells into HOKs (confocal microscopy); type: cell-based, Porphyromonas gingivalis; conditions: for P. gingivalis cell entry into HOKs: vs untreated HOKs
Excerpt: Nuclei were stained with DAPI (Invitrogen).

actin in HOKs = assay: Actin arrangement in HOKs (anti-actin staining, confocal microscopy); type: cell-based, human; conditions: treated for 0, 10, 30 min or 2 h
fimA = assay: Gene expression in P. gingivalis (qRT-PCR); conditions: 30 μM, 16 h
[3] = after removal of compounds from growth media

Row | SMILES | inhibitory efficiency on internalization of P. gingivalis vesicles (comparison of compounds) (P. gingivalis vesicles; 30 μM, 2 h) | P. gingivalis invasion of epithelial cells (P. gingivalis) | reduction of the total number of HOKs with intracellular vesicles (P. gingivalis vesicles; 6 μM, 2 h) [%] | fluorescence intensity of internalized vesicles in HOKs (P. gingivalis vesicles; 30 μM, 100 infected HOKs, vs non-exposed HOKs) | reduction of the total number of HOKs with intracellular vesicles (P. gingivalis vesicles; 30 μM, 2 h) | inhibitory activity on P. gingivalis vesicle invasion of HOKs, dose dependence (P. gingivalis vesicles; different doses, 2 h) | reversibility of the effect on microtubule arrangement (microtubules in HOKs; [3]) | start of recovery of microtubule arrangement after compound removal (microtubules in HOKs; [3]) [h] | microtubule arrangement in HOKs (microtubules in HOKs; observed 30 min after treatment) | exit of intracellular P. gingivalis from HOKs (P. gingivalis 33277 [1]) | host cell invasion by P. gingivalis (P. gingivalis 33277 [2]; at concentrations of 1.2, 6, and 30 μM in vitro) | P. gingivalis cell entry into HOKs (P. gingivalis 33277 [2]) | actin arrangement in HOKs (actin in HOKs) | expression of fimA (fimA)
1 | C=C1[C@@H](C)[C@H]2[C@H](Cc3ccccc3)NC(=O)[C@]23[C@H](OC(C)=O)/C=C/[C@@](C)(O)C(=O)[C@@H](C)C/C=C/[C@H]3[C@@H]1O [cytochalasin D, reference compound] | significant inhibitory activity was not observed | inhibited P. gingivalis invasion of epithelial cells |  |  |  |  |  |  |  |  |  |  |  | 
2 | O=C(N/N=C/c1ccc(O)c(O)c1)c1cc2ccccc2cc1O [dynasore] | highest efficiency |  | 40 | significantly lower fluorescence intensity | over 95% | dose-dependent manner | reversible | 2 | microtubules became more condensed and formed a cortical outer shell at the cell membrane | no significant change in the fluorescence intensity; also recorded: able to block the bacterial exit from HOKs | inhibit host cell invasion | effectively block P. gingivalis cell entry into HOKs | alteration of actin arrangement was not detected | specifically inhibited expression of fimA
3 | COC(=O)Nc1nc2ccc(C(=O)c3cccs3)cc2[nH]1 [nocodazole, reference compound] |  | inhibited P. gingivalis invasion of epithelial cells |  |  |  |  |  |  |  |  |  | effectively block P. gingivalis cell entry into HOKs |  | 
